Data on one molecule can be found in article PMC2574679 (Journal of the American Chemical Society, 2008).

The test addresses Bcl-XL (Homo sapiens, UniProt Q07817). In kind it is binding.

Sequence of Bcl-XL (Q07817 whole entry): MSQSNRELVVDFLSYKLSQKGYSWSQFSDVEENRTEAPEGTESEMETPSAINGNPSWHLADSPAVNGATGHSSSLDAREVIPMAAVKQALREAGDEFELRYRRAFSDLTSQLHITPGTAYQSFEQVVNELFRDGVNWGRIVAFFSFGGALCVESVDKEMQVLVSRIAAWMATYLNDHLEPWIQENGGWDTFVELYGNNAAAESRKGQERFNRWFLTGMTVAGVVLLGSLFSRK

One may read the IC50 as the midpoint of a concentration-inhibition curve. Higher therefore signals weaker potency. Molecule `CC1(C)CCN(c2ccc(C(=O)NS(=O)(=O)c3ccc(NCCSc4ccccc4)c([N+](=O)[O-])c3)cc2)CC1` [SZ4TA2] showed a half-inhibitory concentration (IC50) of 78.8 nM.
